Values of other authors in publication PMC8687831, “α-Amylase Inhibitory Activity of Catunaregam spinosa (Thunb.) Tirveng.: In Vitro and In Silico Studies” (BioMed Research International, 2021).

Tested on: streptozotocin-induced diabetic rats
Design: method as in PMID 21143769

With `CC[C@H](CC[C@@H](C)[C@H]1CC[C@H]2[C@@H]3CC=C4C[C@@H](O)CC[C@]4(C)[C@H]3CC[C@]12C)C(C)C` [β-Sitosterol, β-sitosterol] as the molecule, how does the “effective to lower the blood glucose level” value read?
The value was 78-100%.
